Read-outs that look alike come from different tables or passages of the source.
Key:
[1] = Acute oral toxicity (Litchfield-Wilcoxon); settings: in vivo, mouse, 7 days
Method: The acute oral toxicity of the present substances were examined by using groups of ICR-JCL mouse and orally administering each of the representatives of present substances forcibly as an aqueous solution in distilled water or as an aqueous suspension also in distilled water at predetermined dosages, respectively. After observing the toxicological symptoms, if any, for 6 days, and recording the mortality until 7th day of the administration, LD50 (acute oral) was calculated by the method of Litchfield-Wilcoxon, and autopsy was carried out on dead mice and live mice to obtain informations.

[2] = test system: Salmonella typhimurium TA 100; assay: Mutagenicity, reversion assay, TA 100; type: cell-based
Method: (§1) (ii) The strains TA 98 and TA 100 (both are histidine requiring) of Salmonella typhimurium were used in the reversion assay.
(§2) Into 2 ml of a soft agar culture medium (the medium itself contains 6 g of sodium chloride and 6 g of agar in 1000 ml of distilled water) to which one tenth by volume of an aqueous solution of 0.5 mM of biotin and 0.5 mM of histidine had been added, 0.1 ml of the bacterial suspension and 0.1 ml of an aqueous solution of the present substance were admixed and the mixture was layered on the minimum agar culture medium. After 2 days of incubation at 37° C., the number of revertant colonies was counted. Furylfuramide (AF-2) was used as the positive control.

[3] = test system: Salmonella typhimurium TA 98; assay: Mutagenicity, reversion assay, TA 98; type: cell-based
Method: as §1, §2

[4] = test system: dog's stomach; type: in vivo, Beagle dog
Method: Five grams of the present substance (each of Specimens Nos. 1, 2, 3, 4, 5, 6, 7, 8, 9, 10 and 11) and of aspirin were respectively administered to each Beagle of body weight of 9 to 12 kg as an aqueous suspension in distilled water of adjusted pH of 3, and after 90 min of the administration, the state of hemorrhage in the dog's stomach was examined.

[5] = test system: Ehrlich cancer; assay: Cancer proliferation and PGE in the cancer cells (Ehrlich); type: in vivo, C57BL/6 mouse; settings: 100 mg/kg i.p. every other day, 14th day; for Weight of cancer: control 1.30; for Content of PGE in the cancer: control 1.77
Method: Following the same method as in Example 12, the anti-cancer action against transplanted Ehrlich cancer in C57BL/6 mouse, and the amount of PGE in the cancer cells in proliferation in the living body of the mouse were examined in the cases where each one compound of the present invention, Specimens Nos. 1, 2, 3, 4, 5, 6, 8, 9, 10 and 11 was intraperitoneally administered every other day from the next day of the transplantation in total 6 times at a dosage of 100 mg/kg.
The results of determination of the weight of cancer extirpated from the sacrificed mouse on 14th day of the transplantation of the cancer cells, 1×10^6 in number per animal, and content of PGE of the extirpated cancer are shown in the following Table 13: […]

[6] = test system: male Sprague-Dowley rats; assay: Leakage of dye-staff after skin stimulation with histamine and PGE1; type: in vivo; settings: challenge agents only, no present substance
Method: To the three groups of male Sprague-Dowley rats of the total six groups, the respective present substances (Specimens Nos. 4, 7 and 8) were forcibly administered by oral route at the rate of 1000 mg/kg, the other three groups being administered nothing at this time. After 60 min of the administration, a mixture of PGE1 (2.5×10^-11 mol/animal) and histamine (2×10^-8 mol/animal) was intracutaneously injected under light […] into the shaved skin of an abdominal part of four groups of the rats including three groups administered with the present substance.

[7] = test system: Bacillus subtilis M 45; assay: Mutagenicity, rec-assay, strain M 45; type: cell-based; settings: 10 μg/disk, negative control
Method: (§3) As the first stage, the present substances were tested by rec-assay (i), and as the second stage, they were tested by reversion assay (ii).
(§4) (i) A strain of Bacillus subtilis M 45, a defectant of recombination repair, and a wild strain of Bacillus subtilis H 17 keeping recombination repair activity were inoculated to make their own streaks not crossed at the start on a B-2 agar culture plate (made by dissolving 10 g of meat extract, 10 g of polypeptone, 5 g of sodium chloride and 15 g of agar in 1000 ml of distilled water at pH 7.0). Then, a paper disc of 8 mm in diameter, which absorbed 0.04 ml of an aqueous solution of the present substance in sterilized water was put on the surface of the agar plate so as to cover the starting point of the above-mentioned streaks of bacterial culture. The inoculated B-2 agar plate was kept at 37° C. for a night and the length of growth-inhibited region was measured.

[8] = test system: Bacillus subtilis H 17; assay: Mutagenicity, rec-assay, strain H 17; type: cell-based; settings: 10 μg/disk, negative control
Method: as §3, §4

[9] = test system: male Sprague-Dowley rats; assay: Foot-oedema induced by carrageenin and PGE1; type: in vivo; settings: challenge agents only, no present substance; 60 min
Method: The three groups of male Sprague-Dowley rats of total six groups, the respective present substances, Specimens Nos. 4, 7 and 8 were administered forcibly by oral route at a rate of 1000 mg/kg, the other three groups of the same kind of rats being administered nothing at this time.
After 60 min of the administration, 0.1 ml of an aqueous solution of carrageenin (1 mg) and PGE1 (0.1 μg) was injected onto the hind paw of the four groups of the rats including the three groups administered with the present substance. To one group of remaining two groups not administered with the present substance, 0.1 ml of an aqueous solution containing only carrageenin at 1% was injected, and to the other one group not administered with the present substance, an aqueous solution containing only PGE1 was injected.
The volume of the thus swollen foot of the groups of the thus treated rats was measured by the water-displacement method, and the results are shown in Table 17 by the increment of the volume of foot as compared to the volume of foot before the treatment as percentage.

Structure (SMILES) | LD50 at 168 h [1] [mg/kg] | Number of revertant colonies TA 100 ([2]; 5,000 μg/plate, control 149) [number per plate] | Number of revertant colonies TA 98 ([3]; 5,000 μg/plate, control 13) [number per plate] | hemorrhage in the stomach ([4]; dog, in vivo) | Weight of cancer [5] [g] | Content of PGE in the cancer [5] [ng/g] | other results
O=C(O)c1ccc(NC2O[C@H](CO)[C@H](O)[C@H](O)[C@H]2O)cc1 (stereo partly drawn) [Specimen No. 6, Sodium p-aminobenzoate-N--D-galactoside] | 14600 | 51 | 7 | no hemorrhage in the stomach was found | 0.65 | 3.66 | 
O=C(O)c1ccc(NC2O[C@H](CO)[C@@H](O)[C@H](O)[C@H]2O)cc1 (stereo partly drawn) [Specimen No. 5, Sodium p-aminobenzoate-N--D-glucoside] | > 15000 | 104 | 11 | no hemorrhage in the stomach was found | 0.70 | 3.20 | 
NCCc1c[nH]cn1 [Histamine, histamine, reference compound] |  |  |  |  |  |  | Absorbance at 620 nm (dye leakage) [6]: 0.192
NC(=O)C(=Cc1ccc([N+](=O)[O-])o1)c1ccco1 [Furylfuramide, reference compound] |  |  |  |  |  |  | Number of revertant colonies TA 100 ([2]; 0.1 μg/plate, positive control): 911 number per plate; Number of revertant colonies TA 98 ([3]; 0.1 μg/plate, positive control): 167 number per plate
O=C(O)c1cccc(NC2O[C@H](CO)[C@@H](O)[C@H](O)[C@@H]2O)c1 (stereo partly drawn) [Specimen No. 3, Sodium m-aminobenzoate-N--D-mannoside] | > 10000 | 90 | 6 | no hemorrhage in the stomach was found | 0.74 | 4.23 | 
O=C(O)c1ccccc1NC1O[C@H](CO)[C@H](O)[C@H](O)[C@H]1O (stereo partly drawn) [Specimen No. 1, Sodium o-aminobenzoate-N--D-galactoside] | 6100 | 151 | 6 | no hemorrhage in the stomach was found | 0.63 | 4.10 | 
NC[C@H]1O[C@H](O[C@H]2[C@H](O)[C@@H](O[C@H]3O[C@H](CO)[C@@H](O)[C@H](N)[C@H]3O)[C@H](N)C[C@@H]2N)[C@H](O)[C@@H](O)[C@@H]1O [Kanamycin] |  |  |  |  |  |  | Length of inhibition growth zone M 45 [7]: 5 mm; difference (M 45 minus H 17) [7]: 1 mm; Length of inhibition growth zone H 17 [8]: 4 mm
CC(=O)Oc1ccccc1C(=O)O [aspirin, reference compound] |  |  |  |  |  |  | hemorrhage in the stomach ([4]; 5 g, 90 min after administration): hemorrhage in the stomach was observed
COC(=O)c1ccccc1NC1O[C@H](CO)[C@@H](O)[C@H](O)[C@@H]1O (stereo partly drawn) [Specimen No. 11, Methyl o-aminobenzoate-N--D-mannoside] | > 7500 | 95 | 8 | no hemorrhage in the stomach was found | 0.69 | 4.20 | 
CCCCC[C@H](O)/C=C/[C@H]1[C@H](O)CC(=O)[C@@H]1CCCCCCC(=O)O [PGE1, reference compound] |  |  |  |  |  |  | Percentage increment of volume of foot [9]: 9.3%; Absorbance at 620 nm (dye leakage) [6]: 0.066
O=C(O)c1ccc(NC2(CO)OC[C@@H](O)[C@@H](O)[C@@H]2O)cc1 (stereo partly drawn) [Specimen No. 9, Sodium p-aminobenzoate-N--D-fructoside] | > 10000 | 95 | 5 | no hemorrhage in the stomach was found | 0.80 | 4.32 | 
O=C(O)c1ccc(NC2OC[C@H](O)[C@H](O)[C@H]2O)cc1 (stereo partly drawn) [Specimen No. 10, Sodium p-aminobenzoate-N--L-arabinoside] | 10800 | 51 | 3 | no hemorrhage in the stomach was found | 0.70 | 4.14 | 
C[C@@H]1OC(Nc2ccccc2C(=O)O)[C@H](O)[C@H](O)[C@H]1O (stereo partly drawn) [Specimen No. 2, Sodium o-aminobenzoate-N--L-rhamnoside] | 12500 | 61 | 9 | no hemorrhage in the stomach was found | 0.81 | 3.88 | 

— patent publication US4440757A, “Pharmaceutical composition comprising derivative of aminobenzoic acid for regulating prostaglandin” (priority 1978, dated 1984)
